Assay results as given in ChEMBL document CHEMBL1137910, “Synthesis and biological activity of novel antibacterial quinazolines” (2004).

What was measured:
Assay type in all cases: functional
Bacillus subtilis = assay: Ability to inhibit growth of Bacillus subtilis MTCC 121 was determined
Enterococcus faecalis = assay: Ability to inhibit growth of Enterococcus faecalis MTCC 439 was determined
Klebsiella pneumoniae = assay: Ability to inhibit growth of Klebsiella pneumoniae MTCC 109 was determined
Staphylococcus aureus = assay: Ability to inhibit growth of Staphylococcus aureus MTCC1430 was determined
Pseudomonas aeruginosa = assay: Ability to inhibit growth of Pseudomonas aeruginosa MTCC 1034 was determined
Escherichia coli = assay: Ability to inhibit growth of Escherichia coli MTCC 42 was determined
Proteus vulgaris = assay: Ability to inhibit growth of Proteus vulgaris MTCC744 was determined
Bacillus cereus = assay: Ability to inhibit growth of Bacillus cereus MTCC 1272 was determined
Shigella sonnei = assay: Ability to inhibit growth of Shigella sonnei MTCC 2957 was determined

Structure (SMILES) | Growth Inhibition (Bacillus subtilis) | Growth Inhibition (Enterococcus faecalis) | Growth Inhibition (Klebsiella pneumoniae) | Growth Inhibition (Staphylococcus aureus) | Growth Inhibition (Pseudomonas aeruginosa) | Growth Inhibition (Escherichia coli) | Growth Inhibition (Proteus vulgaris) | Growth Inhibition (Bacillus cereus) | Growth Inhibition (Shigella sonnei)
Cc1ccc2nc(-c3ccccc3)nc(-c3ccc(N(C)C)cc3)c2c1 | 15 mm | 12 mm | 19 mm | 11 mm | 18 mm | 18 mm | 17 mm | 14 mm | 16 mm
COc1ccc(-c2nc(-c3ccccc3)nc3ccc(C)cc23)cc1 | 12 mm | 12 mm | 17 mm | 0 mm | 16 mm | 16 mm | 15 mm | 13 mm | 15 mm
COc1ccc(-c2nc(N3CCCCC3)nc3ccc(C)cc23)cc1 | 21 mm | 16 mm | 20 mm | 19 mm | 15 mm | 19 mm | 18 mm | 16 mm | 21 mm
Cc1ccc2nc(N3CCOCC3)nc(-c3ccccc3)c2c1 | 16 mm | 16 mm | 19 mm | 12 mm | 19 mm | 21 mm | 18 mm | 15 mm | 20 mm
Cc1ccc2nc(N3CCOCC3)nc(-c3ccc(N(C)C)cc3)c2c1 | 18 mm | 17 mm | 20 mm | 22 mm | 16 mm | 20 mm | 18 mm | 19 mm | 19 mm
O=C(O)c1cn(C2CC2)c2cc(N3CCNCC3)c(F)cc2c1=O [CIPROFLOXACIN] | 22 mm | 16 mm | 18 mm | 21 mm | 18 mm | 22 mm | 19 mm | 17 mm | 21 mm
